Measurements reported in patent US20250051301A1, “MUTANT IDH1 AND IDH2 INHIBITOR AND APPLICATION THEREOF” (Betta Pharmaceuticals Co., Ltd, priority 2022, published 2025).

How the values were obtained:
IDH1^R132H [1] = molecular target: T1, IDH1^R132H (Homo sapiens, UniProt O75874, R132H); assay: Enzyme activity inhibition assay (fluorescence-based), IDH1 R132H; type: biochemical
Procedure: The inhibitory ability of the compounds on the enzyme activities of IDH1^R132H and IDH2^R140Qwas detected and expressed as the half inhibitory concentration (IC50) value. AG-881 was used as a positive control compound. In this experiment, compounds were screened on enzymes IDH1^R132H and IDH2^R140Q using a fluorescence-based method (initial concentration: 10000 nM, 3-fold dilution, 10 concentrations, and single-well detection). • (1) Preparation of 1×assay buffer. • (2) Preparation of compound concentration gradient: the compounds to be tested were assayed at an initial concentration of 10000 nM, with 3-fold dilution and 10 concentrations, and diluted into 200-fold the final concentration in 100% DMSO solution in a 384-well plate. • (3) 250 nL of DMSO and 250 nL of diluted compounds were transferred to a reaction plate with Echo 550. • (4) IDH2^R140Q enzyme detection: 25 μL of an IDH2^R140Q enzyme solution was added, and the mixture was incubated for 60 minutes; then 25 μL of a substrate solution was added, and the mixture was incubated for 150 minutes; then 25 μL of a detection buffer was added, and the mixture was shaken for 1 minute and incubated for 60 minutes; and finally, Synergy 2, Ex544/Em590 cutoff 590 was used for reading. • (5) IDH1^R132H enzyme detection: 40 μL of a mixture solution of an IDH1^R132H enzyme at the 1.25-fold final concentration and NADPH was added, and the mixture was incubated for 60 minutes; then 10 μL of a substrate solution at the 5-fold final concentration was added, and the mixture was incubated for 90 minutes; then 25 μL of a detection buffer at the 3-fold final concentration was added, and the mixture was shaken for 1 minute. and finally, Synergy 2, Ex544/Em590 cutoff 590 was used for reading. • (8) Inhibition rate calculation, formula: % Inhibition=(RFU_sample−RFU_min)/(RFU_max−RFU_min)*100%, wherein RFU-sample represents the fluorescence intensity of a sample; RFU-min represents the average value of negative control wells and represents the fluorescence intensity with an enzyme; and RFU-max represents the average value of positive control wells and represents the fluorescence intensity without an enzyme. The curve fitting was performed using Graphpad Prism software to obtain IC50 values, and the test results were as shown in table 2.

IDH1^R132H [2] = molecular target: T1, IDH1^R132H; assay: 2-HG assay in cells (U87 cell line stably transfected with IDH1-R132H); type: cell-based; settings: 72 hours, read-out: 2-HG in medium (IC50, nM) (IDH1^R132H)
Procedure: The compounds were detected for the inhibition of 2-HG production in the U87 cell line stably transfected with IDH1-R132H and the culture supernatant of TF-1 cells stably transfected with IDH2-R140Q. • (1) The cultured cells were collected by centrifugation, then suspended in a cell culture solution, counted, and seeded in a 96-well cell culture plate at 160 μL of cell suspension/well (20000 cells/well for U87-IDH1-R132H; 10000 cells/well for TF-1-IDH2-R140Q). • (2) A 96-well plate dilution was taken, and the compounds to be tested were diluted in a gradient manner in DMSO and a cell culture solution; and then 40 μL of the gradient-diluted compounds to be tested were added to the 96-well plate on which cells have been plated. […] Finally, the plate was cultured in a 37° C. incubator containing 5% CO2. • (3) After the compounds were incubated with the cells for 72 hours, the cell culture plate was taken out and centrifuged at 1500 rpm for 5 minutes, and then 100 μL of the medium supernatant was aspirated for 2-HG detection. • (4) 2-HG detection: the cell supernatant was diluted with purified water, 30 μL of the diluted sample was taken into a 1.5 ml centrifuge tube, and 200 μL of the internal standard solution was added. The mixture was mixed uniformly by vortex and centrifuged at 3200 rpm at 4° C. for 15 minutes. 100 μL of the supernatant solution was diluted with water at a 1:1 ratio and then detected by LC-MS. Analyte Peak Area was used to represent the 2-HG levels. • (5) Inhibition rate calculation, formula: % Inhibition=(1−Analyte Peak Area_sample/Analyte Peak Area_max)*100%, wherein Analyte Peak Area_sample represents the Analyte Peak Area of the sample to which the compound was added; Analyte Peak Area_max represents the average value of Analyte Peak Area of positive control wells (representing the absence of the compound). The curve fitting was performed using Graphpad Prism software to obtain IC50 values, and the test results were as shown in table 2.

T1 sequence (O75874 whole entry R132H): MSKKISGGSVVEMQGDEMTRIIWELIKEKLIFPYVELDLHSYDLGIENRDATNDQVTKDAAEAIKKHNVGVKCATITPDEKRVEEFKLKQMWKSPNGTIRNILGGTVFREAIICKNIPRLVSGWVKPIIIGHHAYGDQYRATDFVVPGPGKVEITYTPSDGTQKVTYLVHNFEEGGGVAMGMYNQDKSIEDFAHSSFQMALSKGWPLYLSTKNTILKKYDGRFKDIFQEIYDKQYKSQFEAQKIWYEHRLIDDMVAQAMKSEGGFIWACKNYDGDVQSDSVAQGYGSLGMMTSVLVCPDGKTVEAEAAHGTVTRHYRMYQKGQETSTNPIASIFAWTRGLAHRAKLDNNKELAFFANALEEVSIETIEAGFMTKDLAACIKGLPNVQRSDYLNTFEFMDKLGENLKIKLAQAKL

Structure (SMILES) | IC50 (IDH1^R132H [1]; class symbols) | IC50 (IDH1^R132H [2]; class symbols) | IC50 (IDH1^R132H [1]; numeric values) | IC50 (IDH1^R132H [2]; numeric values)
C=Cc1cc(-c2nc(N[C@H](C)C(F)(F)F)nc(N[C@H](C)C(F)(F)F)n2)nc(Cl)c1N [Example 9, 6-(5-amino-6-chloro-4-vinylpyridin-2-yl)-N^2,N^4-bis((R)-1,1,1-trifluoropropyl-2-yl)-1,3,5-triazine-2,4-diamine] | > 1000 nM | > 1000 nM | – | –
C[C@@H](Nc1nc(N[C@H](C)C2CC2)nc(-c2cc(F)c(N)c(Cl)n2)n1)C1CC1 [Example 11, 6-(5-amino-6-chloro-4-fluoropyridin-2-yl)-N^2,N^4-bis((R)-1-cyclopropylethyl)-1,3,5-triazine-2,4-diamine] | > 1000 nM | 100 to 1000 nM | – | –
C[C@@H](Nc1nc(N[C@H](C)C(F)(F)F)nc(-c2nc(Cl)c(N)cc2F)n1)C(F)(F)F [Example 4, 6-(5-amino-6-chloro-3-fluoropyridin-2-yl)-N^2,N^4-bis((R)-1,1,1-trifluoroprop-2-yl)-1,3,5-triazine-2,4-diamine] | > 1000 nM | > 1000 nM | – | –
C[C@@H](Nc1nc(N[C@H](C)C(F)(F)F)nc(-c2cc(F)c(O)c(Cl)n2)n1)C(F)(F)F [Example 10, 6-(4,6-bis(((R)-1,1,1-trifluoroprop-2-yl)amine)-1,3,5-triazin-2-yl)-2-chloro-4-fluoropyridin-3-ol] | > 1000 nM | 100 to 1000 nM | – | –
COc1cc(-c2nc(N[C@H](C)C(F)(F)F)nc(N[C@H](C)C(F)(F)F)n2)nc(Cl)c1N [Example 3, 6-(5-amino-6-chloro-4-methoxypyridin-2-yl)-N^2,N^4-bis((R)-1,1,1-trifluoroprop-2-yl)-1,3,5-triazine-2,4-diamine] | > 1000 nM | > 1000 nM | – | –
C[C@@H](Nc1nc(N[C@H](C)C(F)(F)F)nc(-c2cc(Br)c(N)c(Cl)n2)n1)C(F)(F)F [Example 6, 6-(5-amino-4-bromo-6-chloropyridin-2-yl)-N^2,N^4-bis((R)-1,1,1-trifluoropropyl-2-yl)-1,3,5-triazine-2,4-diamine] | 100 to 1000 nM | 50 to 100 nM | – | –
C[C@@H](Nc1nc(N[C@H](C)C(F)(F)F)nc(-c2ccc(N)c(Cl)n2)n1)C(F)(F)F [Example 2] | – | – | 22 nM | 17 nM

Results, then the molecule that gave them:

IC50 (IDH1^R132H [1]; class symbols) | IC50 (IDH1^R132H [2]; class symbols) | IC50 (IDH1^R132H [1]; numeric values) | IC50 (IDH1^R132H [2]; numeric values) | Structure (SMILES)
100 to 1000 nM | – | – | – | C[C@@H](Nc1nc(N[C@H](C)C(F)(F)F)nc(-c2cc(Cl)c(N(C)C)c(Cl)n2)n1)C(F)(F)F [Example 21, 6-(4,6-dichloro-5-dimethylaminopyridin-2-yl)-N^2,N^4-bis((R)-1,1,1-trifluoroprop-2-yl)-1,3,5-triazine-2,4-diamine]
> 1000 nM | – | – | – | C[C@@H](Nc1nc(N[C@H](C)C(F)(F)F)nc(-c2cc(OC(F)F)c(N)c(Cl)n2)n1)C(F)(F)F [Example 22, 6-(5-amino-6-chloro-4-(difluoromethoxy)pyridin-2-yl)-N^2,N^4-bis((R)-1,1,1-trifluoropropyl-2-yl)-1,3,5-triazine-2,4-diamine]
100 to 1000 nM | 100 to 1000 nM | – | – | C[C@@H](Nc1nc(N[C@H](C)C(F)(F)F)nc(-c2cc(C(F)(F)F)c(N)c(Cl)n2)n1)C(F)(F)F [Example 25, 6-(6-chloro-5-amino-4-(trifluoromethyl)pyridin-2-yl)-N^2,N^4-bis((R)-1,1,1-trifluoropropyl-2-yl)-1,3,5-triazine-2,4-diamine]
≤ 50 nM | ≤ 50 nM | – | – | C[C@@H](Nc1nc(N[C@H](C)C(F)(F)F)nc(-c2cc(F)c(Cl)c(Cl)n2)n1)C(F)(F)F [Example 17, 6-(5,6-dichloro-4-fluoropyridin-2-yl)-N^2,N^4-bis((R)-1,1,1-trifluoroprop-2-yl)-1,3,5-triazine-2,4-diamine]
> 1000 nM | 100 to 1000 nM | – | – | C[C@@H](Nc1nc(N[C@H](C)C(F)(F)F)nc(-c2cc(F)c(N)c(C(F)(F)F)n2)n1)C(F)(F)F [Example 13, 6-(5-amino-4-fluoro-6-(trifluoromethyl)pyridin-2-yl)-N^2,N^4-bis((R)-1,1,1-trifluoroprop-2-yl)-1,3,5-triazine-2,4-diamine]
≤ 50 nM | ≤ 50 nM | – | – | Nc1c(F)cc(-c2nc(NC3CC(F)(F)C3)nc(NC3CC(F)(F)C3)n2)nc1Cl [Example 12, 6-(5-amino-6-chloro-4-fluoropyridin-2-yl)-N^2,N^4-bis(3,3-difluorocyclobutyl)-1,3,5-triazine-2,4-diamine]
> 1000 nM | – | – | – | CNc1c(Cl)cc(-c2nc(N[C@H](C)C(F)(F)F)nc(N[C@H](C)C(F)(F)F)n2)nc1Cl [Example 20, 6-(4,6-dichloro-5-methylaminopyridin-2-yl)-N^2,N^4-bis((R)-1,1,1-trifluoroprop-2-yl)-1,3,5-triazine-2,4-diamine]
